For experiment [1], the target named is GST-tagged K-Ras mutant / His-tagged hSOS1 (Homo sapiens, UniProt P01116). Put plainly: HTRF assay, K-Ras mutant / SOS1 interaction. In kind it is binding. Conditions: read-out: IC50 against mutant Kras. An outline of the steps:
(§1)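 Compounds, in duplicate at six concentrations from 10 μM to 0.01 μM, are added to GST-K-Ras premixed with anti-GST-Eu(K), then His-hSOS1 with anti-6His-XL665. After roughly 10 min, FRET is measured and the emission ratio is used to derive IC50.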
(Time-resolved FRET reads energy transfer from a long-lived donor to a nearby acceptor.)

The target of experiment [2] is T1, wildtype Kras / hSOS1 (Homo sapiens, UniProt P01116).
T1 construct: made in house; host or cells: E. coli BL21 (DE3)
Put plainly: HTRF assay, wildtype Kras / SOS1 interaction. In kind it is binding. Conditions: read-out: IC50 against wildtype Kras. An outline of the steps: as §1

Where [3] appears, read: compound nos. 102-196, general methodology of example 5.
Setting [4] is: compound nos. 201-213, general methodology of example 5.

Read-outs that look alike come from different tables or passages of the source.

Data on 21 molecules can be found in patent US20240254129A1, “HETEROCYCLIC COMPOUNDS AND USES THEREOF” (Kumquat Biosciences Inc., priority 2021, published 2024).

T1 sequence (P01116 1-188 isoform P01116-2): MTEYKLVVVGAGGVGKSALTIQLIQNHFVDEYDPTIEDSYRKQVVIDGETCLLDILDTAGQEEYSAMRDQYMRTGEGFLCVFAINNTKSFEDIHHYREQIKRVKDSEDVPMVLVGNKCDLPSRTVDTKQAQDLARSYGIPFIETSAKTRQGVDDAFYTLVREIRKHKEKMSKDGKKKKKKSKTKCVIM
Sequence of GST-tagged K-Ras mutant / His-tagged hSOS1 (P01116 whole entry G12D, form open): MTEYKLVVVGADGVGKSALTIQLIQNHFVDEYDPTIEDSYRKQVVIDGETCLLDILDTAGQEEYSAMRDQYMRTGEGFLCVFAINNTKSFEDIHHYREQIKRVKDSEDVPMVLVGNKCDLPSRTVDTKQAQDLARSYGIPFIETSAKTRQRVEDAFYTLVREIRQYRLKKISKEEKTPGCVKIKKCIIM

For orientation: IC50 means the midpoint of a concentration-inhibition curve. Consider `Nc1nc2c(-c3c(Cl)cc4c(N5CC6CNCC6C5)nc(OC[C@@]56CCCN5C[C@H](F)C6)nc4c3F)ccc(F)c2s1` (stereo partly drawn) [Compound 569, 4-(6-chloro-8-fluoro-2-(((2R,7aS)-2-fluorotetra-hydro-1H-pyrrolizin-7a(5H)-yl)methoxy)-4-(hexahydro-pyrrolo[3,4-c]pyrrol-2(1H)-yl)quinazolin-7-yl)-7-fluoro-benzo[d]thiazol-2-amine], for which the IC50 in experiment [1] (compound nos. 401-703) is less than 0.5 µM; in experiment [2] (compound nos. 401-703), greater than 0.5 µM.
With `CN1CCC[C@H]1COc1nc(N2CCNCC(F)(F)C2)c2cc(Cl)c(-c3cccc4[nH]c(N)nc34)c(F)c2n1` [Compound 178, 4-(6-chloro-4-(6,6-difluoro-1,4-diazepan-1-yl)-8-fluoro-2-(((S)-1-methylpyrrolidin-2-yl)methoxy)quinazolin-7-yl)-1H-benzo[d]imidazol-2-amine], the IC50 in experiment [1] (setting [3]) and in experiment [2] (setting [3]) was greater than 0.5 µM in each case.
On to `Nc1nc2c(-c3c(Cl)cc4c(N5CC6CCC(C5)NC6)nc(OC[C@@]56CCCN5C[C@H](F)C6)nc4c3F)ccc(F)c2s1` (stereo partly drawn) [Compound 213, 4-(4-(3,6-diazabicyclo-[3.2.2]nonan-3-yl)-6-chloro-8-fluoro-2-(((2R,7aS)-2-fluorotetrahydro-1H-pyrrolizin-7a(5H)-yl)meth-oxy)quinazolin-7-yl)-7-fluorobenzo[d]thiazol-2-amine], for which the IC50 in experiment [1] (setting [4]) and in experiment [2] (setting [4]) was less than 1.5 µM throughout.
On to `Oc1cc(-c2ccc3c(N4CC5CCC(C4)N5)nc(OC[C@@]45CCCN4C[C@H](F)C5)nc3c2F)c2ccccc2c1` [Compound 209, 4-(4-((1R,5S)-3,8-diaza-bicyclo[3.2.1]octan-3-yl)-8-fluoro-2-(((2R,7aS)-2-fluoro-tetrahydro-1H-pyrrolizin-7a(5H)-yl)methoxy)quin-azolin-7-yl)naphthalen-2-ol], for which the IC50 in experiment [1] (setting [4]) and in experiment [2] (setting [4]) was less than 1.5 µM throughout.
Turning to `CN1CCC[C@H]1COc1nc(N2CCNCC(F)(F)C2)c2cc(Cl)c(-c3cccc4nc(N)sc34)c(F)c2n1` [Compound 184, 7-(6-chloro-4-(6,6-difluoro-1,4-diazepan-1-yl)-8-fluoro-2-(((S)-1-methylpyrrolidin-2-yl)methoxy)quinazolin-7-yl)benzo[d]thiazol-2-amine], the IC50 in experiment [1] (setting [3]) and in experiment [2] (setting [3]) was greater than 0.5 µM each time.
As to `CN1CCC[C@H]1COc1nc(N2CCNCC(F)(F)C2)c2cc(Cl)c(-c3cccc4sc(N)nc34)c(OCc3ccccn3)c2n1` [Compound 155, 4-(6-chloro-4-(6,6-difluoro-1,4-diazepan-1-yl)-2-(((S)-1-methylpyrrolidin-2-yl)-methoxy)-8-(pyridin-2-yl-methoxy)quinazolin-7-yl)-benzo[d]thiazol-2-amine], the IC50 in experiment [1] (setting [3]) and in experiment [2] (setting [3]) was greater than 0.5 µM in each case.
In the case of `CN1CCC[C@H]1COc1nc(N2CC3CCC(C2)N3)c2cc(Cl)c(-c3cccc4sc(N)nc34)c(F)c2n1` [Compound 565, 4-(4-(3,8-diazabicyclo-[3.2.1]octan-3-yl)-6-chloro-8-fluoro-2-(((S)-1-methyl-pyrrolidin-2-yl)methoxy)-quinazolin-7-yl)benzo[d]-thiazol-2-amine], the IC50 in experiment [1] (compound nos. 401-703) is less than 0.5 µM; in experiment [2] (compound nos. 401-703) it was greater than 0.5 µM.
The matching figures for `CNCCCN1CCCN(c2nc(OCC34CCCN3CCC4)nc3c(F)c(-c4ccc(F)c5sc(N)nc45)c(Cl)cc23)CC1` [Compound 640, 4-(6-chloro-8-fluoro-4-(4-(3-(methylamino)propyl)-1,4-diazepan-1-yl)-2-((tetrahydro-1H-pyrrolizin-7a(5H)-yl)methoxy)quin-azolin-7-yl)-7-fluorobenzo-[d]thiazol-2-amine]: less than 0.5 µM and greater than 0.5 µM.
As for `CN1CCC[C@H]1COc1nc(N2[C@@H]3CC[C@H]2CNC3)c2cc(Cl)c(-c3cccc4sc(N)nc34)c(F)c2n1` [Compound 306, 4-(4-((1R,5S)-3,8-diaza-bicyclo[3.2.1]octan-8-yl)-6-chloro-8-fluoro-2-(((S)-1-methylpyrrolidin-2-yl)meth-oxy)quinazolin-7-yl)benzo-[d]thiazol-2-amine], the IC50 in experiment [1] (compound nos. 301-306) and in experiment [2] (compound nos. 301-306) was less than 1.5 µM throughout.
`CN1CCC(COc2nc(N3CCNCC(F)(F)C3)c3cc(Cl)c(-c4cccc5sc(N)nc45)c(F)c3n2)CC1` [Compound 134, 4-(6-chloro-4-(6,6-difluoro-1,4-diazepan-1-yl)-8-fluoro-2-((1-methylpiperidin-4-yl)-methoxy)quinazolin-7-yl)-benzo[d]thiazol-2-amine]: the IC50 is greater than 0.5 µM in experiment [1] (setting [3]) and less than 0.5 µM in experiment [2] (setting [3]).
Consider `Nc1cc2cccc(-c3c(Cl)cc4c(N5CC6CCC(C5)N6)nc(OCC56CCCN5CCC6)nc4c3F)c2cn1` [Compound 618, 8-(4-(3,8-diazabicyclo-[3.2.1]octan-3-yl)-6-chloro-8-fluoro-2-((tetrahydro-1H-pyrrolizin-7a(5H)-yl)meth-oxy)quinazolin-7-yl)iso-quinolin-3-amine], for which the IC50 in experiment [1] (compound nos. 401-703) and in experiment [2] (compound nos. 401-703) was greater than 0.5 µM in each case.
For `Fc1ccc(-c2c(Cl)cc3c(N4CC5CCC(C4)N5)nc(OC[C@@]45CCCN4C[C@H](F)C5)nc3c2F)c2c1CCCC2` [Compound 689, 4-(3,8-diazabicyclo[3.2.1]-octan-3-yl)-6-chloro-8-fluoro-7-(4-fluoro-5,6,7,8-tetrahydronaphthalen-1-yl)-2-(((2R,7aS)-2-fluorotetra-hydro-1H-pyrrolizin-7a(5H)-yl)methoxy)quinazoline], the IC50 in experiment [1] (compound nos. 401-703) and in experiment [2] (compound nos. 401-703) was greater than 0.5 µM in each case.
For `Nc1nc2c(-c3c(Cl)cc4c(N5CCCC6(CCNC6)C5)nc(OC[C@@]56CCCN5C[C@H](F)C6)nc4c3F)ccc(F)c2s1` (stereo partly drawn) [Compound 532, 4-(6-chloro-8-fluoro-2-(((2R,7aS)-2-fluorotetra-hydro-1H-pyrrolizin-7a(5H)-yl)methoxy)-4-(2,7-diaza-spiro[4.5]decan-7-yl)quin-azolin-7-yl)-7-fluorobenzo-[d]thiazol-2-amine], the figures for the IC50 in experiment [1] (compound nos. 401-703) and in experiment [2] (compound nos. 401-703) were less than 0.5 µM and greater than 0.5 µM, respectively.
For `CN1CCC[C@H]1COc1nc(N2CCCCC(N)C2)c2cc(Cl)c(-c3cccc4sc(N)nc34)c(F)c2n1` (stereo partly drawn) [Compound 442, 4-(4-(3-aminoazepan-1-yl)-6-chloro-8-fluoro-2-(((S)-1-methylpyrrolidin-2-yl)-methoxy)quinazolin-7-yl)-benzo[d]thiazol-2-amine], the IC50 in experiment [1] (compound nos. 401-703) and in experiment [2] (compound nos. 401-703) was less than 0.5 µM each time.
For the molecule `CN(C)CC1(COc2nc(N3CCNCC(F)(F)C3)c3cc(Cl)c(-c4ccc(F)c5sc(N)nc45)c(F)c3n2)CC1` [Compound 489, 4-(6-chloro-4-(6,6-difluoro-1,4-diazepan-1-yl)-2-((1-((dimethylamino)methyl)-cyclopropyl)methoxy)-8-fluoroquinazolin-7-yl)-7-fluorobenzo[d]thiazol-2-amine], the IC50 in experiment [1] (compound nos. 401-703) and in experiment [2] (compound nos. 401-703) was less than 0.5 µM in each case.
For `Nc1nc2c(-c3ccc4c(N5C[C@H]6CCNCC[C@H]6C5)nc(OC[C@@]56CCCN5C[C@H](F)C6)nc4c3F)ccc(F)c2s1` [Compound 408, 7-fluoro-4-(8-fluoro-2-(((2R,7aS)-2-fluorotetra-hydro-1H-pyrrolizin-7a(5H)-yl)methoxy)-4-((3aR,8aS)-octahydropyrrolo[3,4-d]-azepin-2(1H)-yl)quinazolin-7-yl)benzo[d]thiazol-2-amine], the IC50 in experiment [1] (compound nos. 401-703) is greater than 0.5 µM; in experiment [2] (compound nos. 401-703), less than 0.5 µM.
The matching figures for `CN1CCC[C@H]1COc1nc(N2CCCC(C(N)=O)CC2)c2cc(Cl)c(-c3cccc4sc(N)nc34)c(F)c2n1` (stereo partly drawn) [Compound 581, 1-(7-(2-aminobenzo[d]-thiazol-4-yl)-6-chloro-8-fluoro-2-(((S)-1-methyl-pyrrolidin-2-yl)methoxy)-quinazolin-4-yl)azepane-4-carboxamide]: less than 0.5 µM and greater than 0.5 µM.
Consider `Cn1cnnc1COc1nc(N2CCNCC(F)(F)C2)c2cc(Cl)c(-c3cccc4sc(N)nc34)c(F)c2n1` [Compound 131, 4-(6-chloro-4-(6,6-difluoro-1,4-diazepan-1-yl)-8-fluoro-2-((4-methyl-4H-1,2,4-triazol-3-yl)methoxy)quin-azolin-7-yl)benzo[d]thiazol-2-amine], for which the half-maximal inhibitory concentration (IC50) in experiment [1] (setting [3]) and in experiment [2] (setting [3]) was greater than 0.5 µM in each case.
In the case of `Nc1nc2c(-c3c(Cl)cc4c(N5CCC[C@@H](O)CC5)nc(OC[C@@]56CCCN5C[C@H](F)C6)nc4c3F)ccc(F)c2s1` [Compound 480, (4R)-1-(7-(2-amino-7-fluorobenzo[d]thiazol-4-yl)-6-chloro-8-fluoro-2-(((2R,7aS)-2-fluorotetra-hydro-1H-pyrrolizin-7a(5H)-yl)methoxy)quinazolin-4-yl)azepan-4-ol], the IC50 in experiment [1] (compound nos. 401-703) and in experiment [2] (compound nos. 401-703) was less than 0.5 µM throughout.
As to `CN1CCN(c2nc(OC[C@@H]3CCCN3C)nc3c(F)c(-c4cccc5sc(N)nc45)c(Cl)cc23)CC(F)(F)C1` [Compound 123, 4-(6-chloro-4-(6,6-difluoro-4-methyl-1,4-diazepan-1-yl)-8-fluoro-2-(((S)-1-methyl-pyrrolidin-2-yl)methoxy)-quinazolin-7-yl)benzo[d]-thiazol-2-amine], the concentration for half-maximal inhibition (IC50) in experiment [1] (setting [3]) and in experiment [2] (setting [3]) was greater than 0.5 µM throughout.
On to `Oc1cc(CN2CCc3nc(OCC45CCCN4CCC5)nc(N4CC5CCC(C4)N5)c3CC2)c2ccccc2c1` [Compound 658, 4-((4-(3,8-diazabicyclo-[3.2.1]-octan-3-yl)-2-((tetrahydro-1H-pyrrolizin-7a(5H)-yl)methoxy)-5,6,8,9-tetrahydro-7H-pyrimido-[4,5-d]azepin-7-yl)methyl)-naphthalen-2-ol], for which the IC50 in experiment [1] (compound nos. 401-703) and in experiment [2] (compound nos. 401-703) was greater than 0.5 µM throughout.
